The source of these data is paper PMC13598332, “Selective activation of tetrodotoxin-sensitive sodium channels by AaH-II drives arrhythmogenic late Na^+ current in the heart” (Europace, 2026).

Entries after “also recorded” stand apart in the source; their conditions may differ.

The target in one series is hNav1.6 (Homo sapiens, UniProt Q9UQD0). The class given is cell-based.
Series [1] has as its system human iPS-derived cardiomyocytes. Kind of series: Automated patch-clamp of Na+ current in human iPS-derived cardiomyocytes. The class given is cell-based. On the procedure: The control hiPSC cell line (ITXi002-A; IRX5-Wt[16]; RRID:CVCL_B5QD) was generated from primary dermal fibroblasts and previously characterized.[17–19] hiPSCs were maintained at 37°C, 5% CO2, 21% O2 in StemMacs PSC-Brew XF human medium (Miltenyi Biotec, #130-127-865) on culture plates coated with 0.05 mg/mL Matrigel hESC-Qualified Matrix (Corning, #354277) in DMEM F12 (Gibco, #11320033). At 75% confluency, the cells were passaged using the Gentle Cell Dissociation Reagent (StemCell Technologies, #07174).
We generated right ventricular-like cardioids on 96-well low-attachment plates using the Schmidt et al. (2023) protocol.[20] At D15.5, cardioids were pooled, dissociated, and replated as a monolayer in MW12 plates (Falcon, #353047) coated with Matrigel (Corning, #354277) for automated patch-clamp, and as single cells in 35-mm Petri dishes (NUNC #055055) coated with Matrigel for manual patch-clamp. Immediately before patch-clamp recording, cardiomyocytes were single-cell dissociated using Accutase (Sigma, #A6964).
For human iPSC-derived cardiomyocytes recordings, cells were resuspended at 300 000 cells/mL in a solution composed of 50% culture media and 50% extracellular buffer containing (in mM) 140 NaCl, 4 KCl, 2 CaCl2, 1 MgCl2, 5 glucose, and 10 HEPES (pH 7.4, osmolarity 298 mOsm) supplemented with 5 µM nifedipine. Single-hole, low-resistance chips (3–5 MΩ) were used. The intracellular solution contained (in mM) 10 KCl, 110 KF, 10 NaCl, 1 MgCl2, 1 CaCl2, 10 Ethylene Glycol Tetra-acetic Acid (EGTA), and 10 HEPES (pH 7.2, osmolarity 280 mOsm). Currents were recorded and analysed as previously described for stable cell lines.
(In general: In patch-clamp work, channel activity is measured electrically.)

For series [2], the system named is adult rat ventricular myocytes. The class given is cell-based.
Series [3] relates to adult rat ventricular cardiomyocytes. Kind of series: Calcium imaging (SCR events) in isolated rat cardiomyocytes. In kind it is cell-based. On the procedure:
Eleven-week-old Wistar Han rats were euthanized by intraperitoneal (i.p.) injection of a lethal dose of pentobarbital (140 mg/kg, Euthasol®). Subsequently, the hearts were quickly excised and rinsed in cold calcium-free Tyrode solution with the following composition (in mM): 118 NaCl, 4.17 KCl, 1.2 MgSO4, 1.2 KH2PO4, 21 NaHCO3, 11 glucose, and 5 taurine, at pH 7.4. The aorta was promptly cannulated, and the hearts were perfused in a retrograde fashion with warm (37–38°C) Tyrode containing 1.25 mM CaCl2 to flush the coronary arteries of blood and then with a Tyrode solution supplemented with 1 mg/mL collagenase type 2 (Worthington Biochemical Corp, Lakewood, NJ) and 0.2 U.mL^−1 protease type XIV (Sigma, Poole, UK) during 15–20 min. Once enzymatic digestion is completed, ventricles were shredded into small pieces with surgical scissors in 0.5 mM Ca^2+ Tyrode solution, filtered through a 200-µm mesh, and then resuspended in 1 mM Ca^2+ Tyrode solution for 1 h at RT. Isolated cardiomyocytes were incubated in the dark with Fura-2-AM calcium probe (2 µM in 20% v/v DMSO; Life Technologies) for 15 min. Cardiomyocytes were then loaded onto the IonOptix system (IonOptix Corporation, U.S.A.) and perfused with warm (37°C) Tyrode solution. Cardiomyocytes were stimulated at 0.5 Hz using a MyoPacer field stimulator (20 V, 7 ms) to achieve steady state. Fura-2 fluorescence (F) at 510 nm was used to measure cytoplasmic Ca^2+ concentration variation by exciting with UV light at 340 and 380 nm. Cells were paced for 1 to 2 min, ensuring stabilization of the signals, and the effects of the peptides were measured at the end of a 5 min application time. 30-s-long periods were used as the unit duration (representing 15 Ca^2+ transients) during control and after the perfusion of the compound to count the number of arrhythmogenic transients.

The subject of the next series is isolated rat heart. Kind of series: Ex vivo cardiac electrophysiological recordings (Langendorff, MEA). The procedure:
Eleven-week-old Wistar-Han rats were first heparinized (heparin sodium, 0.5 U/g i.p.) and then euthanized by i.p. injection of 140 mg/kg pentobarbital (Euthasol®). Hearts were quickly excised and immersed in a cold modified Krebs-Henseleit solution (in mM): 116 NaCl, 5 KCl, 1.1 MgSO4, 7 H2O, 0.35 NaH2PO4, 27 NaHCO3, 10 glucose, and pH 7.4. The aorta was cannulated, and the hearts were perfused on a Langendorff system with warm (36.5–37.5°C) and oxygenated (95% O2/5% CO2) Krebs-Henseleit solution supplemented with 1.8 mM CaCl2, 1 mM lactate, and 0.2 mM pyruvate (control solution) at a constant flow rate of 12 mL/min. Once connected to the Langendorff perfusion system, hearts were perfused with control solution for 10 min to stabilize their activities. Electrical activity of the upper part of the right ventricle was assessed using a 64-electrode array (0.2-mm electrode diameter; 0.36-mm interelectrode distance) connected to an EMS64-USB-1002 amplifier. Single-lead ECG was acquired to monitor global cardiac electrical activity. Data were sampled at 10 kHz per channel and acquired by EMapRecord5 (Mappinglab, Oxford, UK). Data were obtained at baseline (2 min before compound perfusion) and during AaH-II* perfusion for 10 min at various concentrations. Data were analysed using EMapScope5 (Mappinglab, Oxford, UK). Activation times were determined as the point of maximal negative slope. All activation times were related to the timing of the first detected waveform and then used to draw activation maps. An average of three complexes was used for activation time and conduction velocity analyses, while interbeat interval was measured as the average of 10 consecutive intervals. The index of inhomogeneity was calculated as previously described.[23] Arrhythmias were quantified over a period of 2 min in control and after peptide perfusion.

The subject of another series is Wistar-Han rats. The class given is in vivo, rat. The following applies: rat, in vivo, iv.
For series [4] the following is noted: rat, in vivo, iv.

hNav1.6, sequence (Q9UQD0 other isoform, or with tags, fused parts or gaps): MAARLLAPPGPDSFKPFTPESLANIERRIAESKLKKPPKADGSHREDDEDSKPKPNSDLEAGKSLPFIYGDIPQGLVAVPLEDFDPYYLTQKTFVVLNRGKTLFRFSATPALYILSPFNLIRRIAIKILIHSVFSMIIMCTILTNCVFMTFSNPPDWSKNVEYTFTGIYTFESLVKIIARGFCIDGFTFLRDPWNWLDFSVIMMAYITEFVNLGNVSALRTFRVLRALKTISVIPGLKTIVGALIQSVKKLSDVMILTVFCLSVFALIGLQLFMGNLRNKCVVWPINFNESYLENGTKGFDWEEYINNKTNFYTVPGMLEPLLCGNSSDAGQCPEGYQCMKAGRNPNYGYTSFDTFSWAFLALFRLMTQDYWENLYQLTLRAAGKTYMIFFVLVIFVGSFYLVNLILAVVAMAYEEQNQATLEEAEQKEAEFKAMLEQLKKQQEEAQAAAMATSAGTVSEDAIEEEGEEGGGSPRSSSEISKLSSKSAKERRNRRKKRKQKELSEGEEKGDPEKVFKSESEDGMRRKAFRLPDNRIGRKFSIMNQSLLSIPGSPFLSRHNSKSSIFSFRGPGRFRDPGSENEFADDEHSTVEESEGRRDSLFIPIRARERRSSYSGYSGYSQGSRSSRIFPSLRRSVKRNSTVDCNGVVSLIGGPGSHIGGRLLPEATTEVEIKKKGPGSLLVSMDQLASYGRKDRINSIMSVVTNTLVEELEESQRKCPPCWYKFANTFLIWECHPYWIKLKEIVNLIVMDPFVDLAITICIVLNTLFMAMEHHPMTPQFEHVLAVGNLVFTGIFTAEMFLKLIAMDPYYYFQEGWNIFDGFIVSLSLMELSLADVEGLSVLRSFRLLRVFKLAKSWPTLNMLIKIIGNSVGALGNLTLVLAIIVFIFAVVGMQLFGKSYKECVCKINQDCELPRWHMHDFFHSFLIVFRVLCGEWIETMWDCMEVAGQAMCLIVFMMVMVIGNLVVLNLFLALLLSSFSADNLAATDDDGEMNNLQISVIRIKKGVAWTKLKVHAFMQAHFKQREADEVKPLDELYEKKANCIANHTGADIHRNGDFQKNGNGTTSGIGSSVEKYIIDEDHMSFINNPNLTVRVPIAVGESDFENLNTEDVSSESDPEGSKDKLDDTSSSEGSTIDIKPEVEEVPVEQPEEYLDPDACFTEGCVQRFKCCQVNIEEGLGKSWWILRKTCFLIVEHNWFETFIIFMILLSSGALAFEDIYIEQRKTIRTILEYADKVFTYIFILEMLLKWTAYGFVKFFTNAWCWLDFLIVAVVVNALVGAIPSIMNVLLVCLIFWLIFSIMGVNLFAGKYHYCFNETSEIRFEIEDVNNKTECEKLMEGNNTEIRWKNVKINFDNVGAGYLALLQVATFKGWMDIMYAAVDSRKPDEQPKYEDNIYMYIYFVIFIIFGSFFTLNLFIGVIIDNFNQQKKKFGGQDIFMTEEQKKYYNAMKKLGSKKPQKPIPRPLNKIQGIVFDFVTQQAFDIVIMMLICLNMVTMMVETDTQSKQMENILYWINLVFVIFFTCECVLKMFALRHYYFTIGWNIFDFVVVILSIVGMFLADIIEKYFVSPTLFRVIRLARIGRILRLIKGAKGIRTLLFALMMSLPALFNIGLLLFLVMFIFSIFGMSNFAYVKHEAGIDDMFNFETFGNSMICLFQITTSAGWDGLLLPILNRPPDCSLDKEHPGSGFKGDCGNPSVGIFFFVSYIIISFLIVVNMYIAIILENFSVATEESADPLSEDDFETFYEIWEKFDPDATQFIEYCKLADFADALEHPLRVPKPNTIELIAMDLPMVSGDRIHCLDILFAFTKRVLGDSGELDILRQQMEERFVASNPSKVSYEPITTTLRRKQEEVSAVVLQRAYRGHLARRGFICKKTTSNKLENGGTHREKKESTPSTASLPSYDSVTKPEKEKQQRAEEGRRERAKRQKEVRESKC

Regarding `NC1=N[C@H](O)[C@H]2[C@H]3O[C@]4(O)O[C@@H]([C@@H](O)[C@@]2(N1)[C@@H]4O)[C@]3(O)CO` [TTX, tetrodotoxin], on hNav1.6, the “block of AaH-II*-modified hNav1.6 currents” value is recorded as “complete block of hNav1.6 currents”. Further, the “block of AaH-II*-triggered INaL” value in series [1] is listed as “entirely blocked; also recorded: fully blocked”. Further, in series [2], the “block of AaH-II* responses” value is listed as “blocked”. Further, in series [3], the “calcium transient amplitude and time to peak” value was “reduce the amplitude and increase the time to peak of regular calcium transients moderately”; the “cells presenting SCR events (SCR cells / cells)” value is on record as “does not by itself trigger the appearance of SCR events”. For the same compound, in the series on isolated rat heart, the “interbeat interval (bradycardia)” value is reported as “small bradycardic effect” and the “ventricular conduction velocity / activation time” value was “unaffected; also recorded: does not affect ventricular conduction velocity”. In the series with Wistar-Han rats, this compound yielded a P wave of 16.3 ± 1.4 ms, a PR of 48.5 ± 3.3 ms, a QRS of 18.2 ± 0.7 ms and a QTc of 45.9 ± 2.2. Also, in the series on Wistar-Han rats, the RR is reported as 194.7 ± 9.3 ms, the RR interval entry is recorded as “increases the RR interval progressively with increasing doses”, the T wave area is listed as 1.1 ± 0.1 mV/ms and the “arrhythmic rats (rats / all rats)” value is on record as “clearly non-arrhythmic”. The circulating plasmatic concentration in series [4] came to 403 ± 44 nM.
